Results: ChEMBL document CHEMBL5303573, “Mapping human microbiome drug metabolism by gut bacteria and their genes” (Nature, 2019)

Experiments:
[1] = The drug is tested on Bacteroides fragilis strain: ATCC43859 for biotransformation. The drug concentrations were measured before and after a 12-h incubation by liquid-chromatography-coupled mass spectrometry (LC–MS); details: 2 µM
[2] = The drug is tested on Eubacterium ventriosum strain: ATCC27560 for biotransformation. The drug concentrations were measured before and after a 12-h incubation by liquid-chromatography-coupled mass spectrometry (LC–MS); type: ADME; design: dose 2 uM, timepoint 0 vs 12 hours; details: 2 µM
[3] = bacteroides fragilis, 12 h, 2 µM
Description: The drug is tested on Bacteroides fragilis strain: NCTC 9343 for biotransformation. The drug concentrations were measured before and after a 12-h incubation by liquid-chromatography-coupled mass spectrometry (LC–MS)

[4] = The drug is tested on Enterococcus faecalis strain: V583 for biotransformation. The drug concentrations were measured before and after a 12-h incubation by liquid-chromatography-coupled mass spectrometry (LC–MS); details: 2 µM
[5] = The drug is tested on Bacteroides dorei strain: DSM17855 for biotransformation. The drug concentrations were measured before and after a 12-h incubation by liquid-chromatography-coupled mass spectrometry (LC–MS); details: phocaeicola dorei, 2 µM
[6] = parabacteroides distasonis, 12 h, 2 µM
Description: The drug is tested on Parabacteroides distasonis strain: ATCC8503 for biotransformation. The drug concentrations were measured before and after a 12-h incubation by liquid-chromatography-coupled mass spectrometry (LC–MS)

[7] = bacteroides thetaiotaomicron, 12 h, 2 µM
Description: The drug is tested on Bacteroides thetaiotaomicron strain: 3731 for biotransformation. The drug concentrations were measured before and after a 12-h incubation by liquid-chromatography-coupled mass spectrometry (LC–MS)

[8] = bacteroides fragilis, 12 h, 2 µM; remark: listed apart in the source
Description: The drug is tested on Bacteroides fragilis strain: 3397 (T10) for biotransformation. The drug concentrations were measured before and after a 12-h incubation by liquid-chromatography-coupled mass spectrometry (LC–MS)

[9] = The drug is tested on Anaerococcus hydrogenalis strain: DSM7454 for biotransformation. The drug concentrations were measured before and after a 12-h incubation by liquid-chromatography-coupled mass spectrometry (LC–MS); details: 2 µM
[10] = The drug is tested on Ruminococcus torques strain: ATCC27756 for biotransformation. The drug concentrations were measured before and after a 12-h incubation by liquid-chromatography-coupled mass spectrometry (LC–MS); type: ADME; design: dose 2 uM, timepoint 0 vs 12 hours; details: 2 µM
[11] = The drug is tested on Blautia luti strain: DSM14534 for biotransformation. The drug concentrations were measured before and after a 12-h incubation by liquid-chromatography-coupled mass spectrometry (LC–MS); type: ADME; design: dose 2 uM, timepoint 0 vs 12 hours; details: 2 µM
[12] = The drug is tested on Bacteroides sp. WH2 strain: WH2 for biotransformation. The drug concentrations were measured before and after a 12-h incubation by liquid-chromatography-coupled mass spectrometry (LC–MS); details: bacteroides sp. wh2, 12 h, 2 µM
[13] = bacteroides stercoris, 12 h, 2 µM
Description: The drug is tested on Bacteroides stercoris strain: ATCC43183 for biotransformation. The drug concentrations were measured before and after a 12-h incubation by liquid-chromatography-coupled mass spectrometry (LC–MS)

[14] = The drug is tested on Bacteroides fragilis strain: HMW610 for biotransformation. The drug concentrations were measured before and after a 12-h incubation by liquid-chromatography-coupled mass spectrometry (LC–MS); details: 2 µM
[15] = The drug is tested on Bifidobacterium ruminantium strain: fecal isolate for biotransformation. The drug concentrations were measured before and after a 12-h incubation by liquid-chromatography-coupled mass spectrometry (LC–MS); details: 2 µM
[16] = The drug is tested on Enterobacter cancerogenus strain: ATCC35316 for biotransformation. The drug concentrations were measured before and after a 12-h incubation by liquid-chromatography-coupled mass spectrometry (LC–MS); details: 2 µM
[17] = The drug is tested on Clostridium scindens strain: ATCC35704 for biotransformation. The drug concentrations were measured before and after a 12-h incubation by liquid-chromatography-coupled mass spectrometry (LC–MS); details: 2 µM
[18] = The drug is tested on Bacteroides caccae strain: ATCC43185 for biotransformation. The drug concentrations were measured before and after a 12-h incubation by liquid-chromatography-coupled mass spectrometry (LC–MS); details: 2 µM
[19] = The drug is tested on Bifidobacterium longum subsp. Infantis strain: CCUG52486 for biotransformation. The drug concentrations were measured before and after a 12-h incubation by liquid-chromatography-coupled mass spectrometry (LC–MS); details: 2 µM
[20] = segatella copri, 12 h, 2 µM
Description: The drug is tested on Prevotella copri strain: DSM18205 for biotransformation. The drug concentrations were measured before and after a 12-h incubation by liquid-chromatography-coupled mass spectrometry (LC–MS)

| SMILES | Bacterial Biotransformation [1] | Bacterial Biotransformation [2] | Bacterial Biotransformation [3] | Bacterial Biotransformation [4] | Bacterial Biotransformation [5] | Bacterial Biotransformation [6] | Bacterial Biotransformation [7] | Bacterial Biotransformation [8] | Bacterial Biotransformation [9] | Bacterial Biotransformation [10] | Bacterial Biotransformation [11] | Bacterial Biotransformation [12] | Bacterial Biotransformation [13] | Bacterial Biotransformation [14] | Bacterial Biotransformation [15] | Bacterial Biotransformation [16] | Bacterial Biotransformation [17] | Bacterial Biotransformation [18] | Bacterial Biotransformation [19] | Bacterial Biotransformation [20] |
| --- | --- | --- | --- | --- | --- | --- | --- | --- | --- | --- | --- | --- | --- | --- | --- | --- | --- | --- | --- | --- |
| CC(=O)OCC(=O)[C@@]12N=C(C)O[C@@H]1C[C@H]1[C@@H]3CCC4=CC(=O)C=C[C@]4(C)[C@H]3[C@@H](O)C[C@@]12C [DEFLAZACORT] | Compound metabolized | Compound metabolized | Compound metabolized | Compound metabolized | Compound metabolized | Compound metabolized | Compound metabolized | Compound metabolized | Compound metabolized | Compound metabolized | Compound metabolized | Compound metabolized | Compound metabolized | Compound metabolized | Compound metabolized | Compound metabolized | Compound metabolized | Compound metabolized | Compound metabolized | Compound metabolized |
| CNCCC(Oc1ccc(C(F)(F)F)cc1)c1ccccc1 (stereo not given) [FLUOXETINE] | Compound metabolized | Compound metabolized | Compound metabolized | Compound metabolized | Compound metabolized | Compound metabolized | Compound metabolized | Compound metabolized | Compound NOT metabolized | Compound NOT metabolized | Compound NOT metabolized | Compound metabolized | Compound metabolized | Compound metabolized | Compound metabolized | Compound metabolized | Compound NOT metabolized | Compound metabolized | Compound metabolized | Compound metabolized |
| CC(=O)Oc1ccc(C(c2ccc(OC(C)=O)cc2)c2ccccn2)cc1 [BISACODYL] | Compound metabolized | Compound metabolized | Compound metabolized | Compound metabolized | Compound metabolized | Compound metabolized | Compound metabolized | Compound metabolized | Compound metabolized | Compound metabolized | Compound metabolized | Compound metabolized | Compound metabolized | Compound metabolized | Compound metabolized | Compound metabolized | Compound metabolized | Compound metabolized | Compound metabolized | Compound metabolized |
| O=C(O)COCCN1CCN(C(c2ccccc2)c2ccc(Cl)cc2)CC1 (stereo not given) [CETIRIZINE] | Compound metabolized | Compound NOT metabolized | Compound metabolized | Compound NOT metabolized | Compound metabolized | Compound metabolized | Compound metabolized | Compound metabolized | Compound NOT metabolized | Compound NOT metabolized | Compound NOT metabolized | Compound NOT metabolized | Compound metabolized | Compound metabolized | Compound NOT metabolized | Compound NOT metabolized | Compound NOT metabolized | Compound NOT metabolized | Compound NOT metabolized | Compound metabolized |
| CC(C(=O)O)c1ccc2c(c1)Cc1cccnc1O2 (stereo not given) [PRANOPROFEN] | Compound metabolized | Compound metabolized | Compound metabolized | Compound NOT metabolized | Compound metabolized | Compound metabolized | Compound metabolized | Compound metabolized | Compound NOT metabolized | – | Compound NOT metabolized | Compound metabolized | Compound metabolized | Compound metabolized | Compound metabolized | Compound NOT metabolized | Compound NOT metabolized | Compound metabolized | Compound metabolized | Compound metabolized |
| CSc1ccc2c(c1)C(N1CCN(C)CC1)Cc1ccccc1S2.O=C(O)/C=C\C(=O)O (stereo not given) | Compound NOT metabolized | Compound NOT metabolized | Compound NOT metabolized | Compound NOT metabolized | Compound NOT metabolized | Compound metabolized | Compound NOT metabolized | Compound NOT metabolized | – | Compound NOT metabolized | Compound NOT metabolized | Compound NOT metabolized | Compound NOT metabolized | Compound NOT metabolized | Compound NOT metabolized | Compound NOT metabolized | Compound metabolized | Compound NOT metabolized | Compound NOT metabolized | Compound metabolized |
| CCOC(=O)[C@H](CCc1ccccc1)N[C@H]1CCc2ccccc2N(CC(=O)O)C1=O [BENAZEPRIL] | Compound metabolized | Compound NOT metabolized | Compound NOT metabolized | Compound metabolized | Compound metabolized | Compound metabolized | Compound metabolized | Compound metabolized | Compound NOT metabolized | Compound NOT metabolized | – | Compound metabolized | Compound metabolized | Compound metabolized | Compound NOT metabolized | Compound NOT metabolized | Compound NOT metabolized | Compound metabolized | – | Compound metabolized |
| CNC(=C[N+](=O)[O-])NCCSCc1csc(CN(C)C)n1 [NIZATIDINE] | Compound NOT metabolized | Compound metabolized | Compound metabolized | Compound metabolized | Compound metabolized | Compound metabolized | Compound NOT metabolized | Compound NOT metabolized | Compound metabolized | Compound metabolized | Compound metabolized | – | Compound NOT metabolized | Compound metabolized | Compound metabolized | Compound metabolized | Compound metabolized | Compound NOT metabolized | Compound metabolized | Compound metabolized |
